Nc1ccc(Cc2ccc(N)cc2)cc1
solubility (mole fraction)
Details | 293.15 K | 298.15 K | 303.15 K | 308.15 K | 313.15 K | 318.15 K | 323.15 K | 328.15 K | 333.15 K
in benzene | 0.0207 | 0.0299 | 0.039 | 0.0499 | 0.066 | 0.0865 | 0.114 | – | –
in chloroform | 0.123 | 0.142 | 0.165 | 0.197 | 0.23 | 0.269 | 0.306 | – | –
in ethanol | 0.0335 | 0.0461 | 0.0637 | 0.0842 | 0.11 | 0.15 | 0.198 | 0.267 | –
in isopropanol | 0.011 | 0.0136 | 0.0178 | 0.0236 | 0.0312 | 0.0411 | 0.0536 | 0.0696 | 0.0898
in methanol | 0.127 | 0.157 | 0.187 | 0.219 | 0.259 | 0.3 | 0.347 | 0.403 | –
in n-butanol | 0.0187 | 0.0231 | 0.0296 | 0.0371 | 0.0476 | 0.0582 | 0.0713 | 0.0885 | 0.108
in toluene | 0.0156 | 0.0195 | 0.0244 | 0.03 | 0.038 | 0.0487 | 0.0599 | 0.075 | 0.0932

Source: BigSolDB 2.1
